Data taken from patent US9587266B2, “Mutant luciferases” (University of Massachusetts, priority 2011, dated 2017).
“And” between values parts separate entries of the source, which are not always exact repeats. Equal entries are not always repeated.

Tests used:
[1] = biological target: T1, R218K luciferase (Photinus pyralis, UniProt P08659, R218K); test: Small molecule luciferase inhibition assay; type: biochemical; details: inhibitor 2 or 20 μM, enzyme titration
T1 construct: The full firefly (Photinus pyralis) luciferase gene was PCR amplified from pGL3 (Promega); GST (N, cleaved yes); made in house; host or cells: E. coli JM109
Description: Enzyme titration assays were performed under the same conditions, using 0 μM, 2 or 20 μM of the luciferase inhibitor 2-(4-methoxyphenyl)benzothiazole, a constant final luciferin substrate concentration of 20 μM, and serial 2-fold dilutions of luciferase concentration from 20 nM down to 0.01 nM.

[2] = biological target: T2, WT luciferase (Photinus pyralis, UniProt P08659); type: biochemical; details: WT luciferase treated with D-luciferin; inhibitor 2 or 20 μM, enzyme titration
T2 construct: The full firefly (Photinus pyralis) luciferase gene was PCR amplified from pGL3 (Promega); GST (N, cleaved yes); made in house; host or cells: E. coli JM109
Description: Luminescence assays in 96-well plates were initiated by adding 30 μL 2× luciferin substrate in 20 mM Tris pH 7.4, 0.1 mM EDTA, 8 mM MgSO4, 4 mM ATP, and 1 mM TCEP to 30 μL of 20 nM purified luciferase in 20 mM Tris pH 7.4, 0.1 mM EDTA, 1 mM TCEP and 0.4 mg/mL BSA. Substrate titration assays were performed 3 minutes post-substrate addition in a Turner Veritas luminometer with final substrate concentrations ranging from 0.122-250 μM in the presence of 0 μM, 1 μM, or 10 μM of the luciferase inhibitor 2-(4-methoxyphenyl)benzothiazole. Enzyme titration assays were performed under the same conditions, using 0 μM, 2 or 20 μM of the luciferase inhibitor 2-(4-methoxyphenyl)benzothiazole, a constant final luciferin substrate concentration of 20 μM, and serial 2-fold dilutions of luciferase concentration from 20 nM down to 0.01 nM.

[3] = biological target: T3, R218K + L342A luciferase (Photinus pyralis, UniProt P08659, L342A/R218K); type: biochemical
T3 construct: The full firefly (Photinus pyralis) luciferase gene was PCR amplified from pGL3 (Promega); GST (N, cleaved yes); made in house; host or cells: E. coli JM109
Description: (§1) Purified mutant luciferases were used in bioluminescence emission and burst kinetics scans. Each purified protein in 20 mM Tris pH 7.6, 0.1 mM EDTA, 1 mM TCEP and 0.4 mg/mL BSA was added to 2× substrate in 20 mM Tris pH 7.6, 0.1 mM EDTA, 8 mM MgSO4, 4 mM ATP, and 1 mM TCEP in a cuvette.
(§2) Luciferase was rapidly injected into a cuvette containing substrate, and the emission from 400-800 nm was recorded in a SPEX FluoroMax-3 fluorimeter with closed excitation slits.

[4] = biological target: T2, WT luciferase; type: biochemical; details: for Wavelength at Max. Emission: Table 2; for Maximum Emission Wavelength of Selected Substrate: Table 3
Description: as §1, §2

[5] = biological target: T4, F247V luciferase (Photinus pyralis, UniProt P08659, F247V); test: Bioluminescence emission scan; type: biochemical
T4 construct: The full firefly (Photinus pyralis) luciferase gene was PCR amplified from pGL3 (Promega); GST (N, cleaved yes); made in house; host or cells: E. coli JM109
Description: (§3) Purified mutant luciferases were used in bioluminescence emission and burst kinetics scans.
as §2

[6] = biological target: T5, L342A luciferase (Photinus pyralis, UniProt P08659, L342A); test: Bioluminescence emission scan; type: biochemical
T5 construct: The full firefly (Photinus pyralis) luciferase gene was PCR amplified from pGL3 (Promega); GST (N, cleaved yes); made in house; host or cells: E. coli JM109
Description: as §3, §2

[7] = biological target: T6, L286M + S347A luciferase (Photinus pyralis, UniProt P08659, L286M/S347A); test: Bioluminescence emission scan; type: biochemical
T6 construct: The full firefly (Photinus pyralis) luciferase gene was PCR amplified from pGL3 (Promega); GST (N, cleaved yes); made in house; host or cells: E. coli JM109
Description: as §3, §2

[8] = biological target: T7, L286M luciferase (Photinus pyralis, UniProt P08659, L286M); test: Bioluminescence emission scan; type: biochemical
T7 construct: The full firefly (Photinus pyralis) luciferase gene was PCR amplified from pGL3 (Promega); GST (N, cleaved yes); made in house; host or cells: E. coli JM109
Description: as §3, §2

[9] = biological target: T1, R218K luciferase; test: Bioluminescence emission scan; type: biochemical
Description: as §3, §2

[10] = biological target: T2, WT luciferase; test: Titration assay with purified protein; type: biochemical
Description: (§4) The PCR product was cloned into the BamH1 and NotI sites of pGEX6P-1 for bacterial expression. Mutant proteins were created using the Quickchange site-directed mutagenesis kit (Stratagene). Saturating mutagenesis was performed using the used the degenerate codon NNK at sites predicted to impact or alter substrate biding including F247, T251, L286, S347, R337, R218, Q338, Y340, A313, and I351 using the degenerate codon NNK. The point mutants S347A, L286A, A348G, E311A, I351A, A313G, R337A, H245A and L342A were made independently.
(§5) Luminescence assays in 96-well plates were initiated by adding 30 μL 2× substrate in 20 mM Tris pH 7.6, 0.1 mM EDTA, 8 mM MgSO4, 4 mM ATP, and 1 mM TCEP to 30 μL of 20 nM purified luciferase in 20 mM Tris pH 7.6, 0.1 mM EDTA, 1 mM TCEP and 0.4 mg/mL BSA. Titration assays were performed 3 minutes post-substrate addition in a Turner Veritas luminometer with final substrate concentrations ranging from 0.122-250 μM or 0.244-500 μM.

[11] = biological target: T8, R218K mutant luciferase (Photinus pyralis, UniProt P08659, R218K); type: biochemical; details: R218K luciferase, purified protein
T8 construct: The full firefly (Photinus pyralis) luciferase gene was PCR amplified from pGL3 (Promega); GST (N, cleaved yes); made in house; host or cells: E. coli JM109
Description: (§6) The PCR product was cloned into the BamH1 and NotI sites of pGEX6P-1 for bacterial expression. Mutant proteins were created using the Quickchange site-directed mutagenesis kit (Stratagene). Saturating mutagenesis was performed using the used the degenerate codon NNK at sites predicted to impact or alter substrate biding including F247, T251, L286, S347, R337, R218, Q338, Y340, A313, and I351 using the degenerate codon NNK.
(§7) Luminescence assays in 96-well plates were initiated by adding 30 μL 2× substrate in 20 mM Tris pH 7.6, 0.1 mM EDTA, 8 mM MgSO4, 4 mM ATP, and 1 mM TCEP to 30 μL of 20 nM purified luciferase in 20 mM Tris pH 7.6, 0.1 mM EDTA, 1 mM TCEP and 0.4 mg/mL BSA.

[12] = biological target: T9, S347A mutant luciferase (Photinus pyralis, UniProt P08659, S347A); type: biochemical; details: for Apparent Vmax: purified protein
T9 construct: The full firefly (Photinus pyralis) luciferase gene was PCR amplified from pGL3 (Promega); GST (N, cleaved yes); made in house; host or cells: E. coli JM109
Description: as §6, §7

[13] = biological target: T10, T251S mutant luciferase (Photinus pyralis, UniProt P08659, T251S); test: Titration assay with purified protein; type: biochemical
T10 construct: The full firefly (Photinus pyralis) luciferase gene was PCR amplified from pGL3 (Promega); GST (N, cleaved yes); made in house; host or cells: E. coli JM109
Description: as §6, §7

[14] = biological target: T11, L286M mutant luciferase (Photinus pyralis, UniProt P08659, L286M); test: Titration assay with purified protein; type: biochemical
T11 construct: The full firefly (Photinus pyralis) luciferase gene was PCR amplified from pGL3 (Promega); GST (N, cleaved yes); made in house; host or cells: E. coli JM109
Description: as §6, §7

[15] = biological target: T12, L286Y luciferase (Photinus pyralis, UniProt P08659, L286Y); test: Bioluminescence emission scan; type: biochemical
T12 construct: The full firefly (Photinus pyralis) luciferase gene was PCR amplified from pGL3 (Promega); GST (N, cleaved yes); made in house; host or cells: E. coli JM109
Description: as §3, §2

[16] = biological target: T13, F247R luciferase (Photinus pyralis, UniProt P08659, F247R); test: Bioluminescence emission scan; type: biochemical
T13 construct: The full firefly (Photinus pyralis) luciferase gene was PCR amplified from pGL3 (Promega); GST (N, cleaved yes); made in house; host or cells: E. coli JM109
Description: as §3, §2

[17] = biological target: T14, F247A luciferase (Photinus pyralis, UniProt P08659, F247A); test: Bioluminescence emission scan; type: biochemical
T14 construct: The full firefly (Photinus pyralis) luciferase gene was PCR amplified from pGL3 (Promega); GST (N, cleaved yes); made in house; host or cells: E. coli JM109
Description: as §3, §2

[18] = biological target: T15, F247S luciferase (Photinus pyralis, UniProt P08659, F247S); test: Bioluminescence emission scan; type: biochemical
T15 construct: The full firefly (Photinus pyralis) luciferase gene was PCR amplified from pGL3 (Promega); GST (N, cleaved yes); made in house; host or cells: E. coli JM109
Description: as §3, §2

[19] = biological target: T16, T251Q luciferase (Photinus pyralis, UniProt P08659, T251Q); test: Bioluminescence emission scan; type: biochemical
T16 construct: The full firefly (Photinus pyralis) luciferase gene was PCR amplified from pGL3 (Promega); GST (N, cleaved yes); made in house; host or cells: E. coli JM109
Description: as §3, §2

[20] = biological target: T17, T251N luciferase (Photinus pyralis, UniProt P08659, T251N); test: Bioluminescence emission scan; type: biochemical
T17 construct: The full firefly (Photinus pyralis) luciferase gene was PCR amplified from pGL3 (Promega); GST (N, cleaved yes); made in house; host or cells: E. coli JM109
Description: as §3, §2

[21] = biological target: T18, T251S luciferase (Photinus pyralis, UniProt P08659, T251S); test: Bioluminescence emission scan; type: biochemical
T18 construct: The full firefly (Photinus pyralis) luciferase gene was PCR amplified from pGL3 (Promega); GST (N, cleaved yes); made in house; host or cells: E. coli JM109
Description: as §3, §2

[22] = biological target: T19, S347T luciferase (Photinus pyralis, UniProt P08659, S347T); test: Bioluminescence emission scan; type: biochemical
T19 construct: The full firefly (Photinus pyralis) luciferase gene was PCR amplified from pGL3 (Promega); GST (N, cleaved yes); made in house; host or cells: E. coli JM109
Description: as §3, §2

[23] = biological target: T20, S347A luciferase (Photinus pyralis, UniProt P08659, S347A); test: Bioluminescence emission scan; type: biochemical
T20 construct: The full firefly (Photinus pyralis) luciferase gene was PCR amplified from pGL3 (Promega); GST (N, cleaved yes); made in house; host or cells: E. coli JM109
Description: as §3, §2

[24] = biological target: F247L mutant luciferase (Photinus pyralis, UniProt P08659, F247L); details: F247L mutant relative to wild-type luciferase
Description: as §4, §5

[25] = biological target: T21, F247L L286M luciferase (Photinus pyralis, UniProt P08659, F247L/L286M); test: Bioluminescence emission scan; type: biochemical
T21 construct: The full firefly (Photinus pyralis) luciferase gene was PCR amplified from pGL3 (Promega); GST (N, cleaved yes); made in house; host or cells: E. coli JM109
Description: as §3, §2

[26] = biological target: T22, T251S L286M luciferase (Photinus pyralis, UniProt P08659, L286M/T251S); test: Bioluminescence emission scan; type: biochemical
T22 construct: The full firefly (Photinus pyralis) luciferase gene was PCR amplified from pGL3 (Promega); GST (N, cleaved yes); made in house; host or cells: E. coli JM109
Description: as §3, §2

[27] = read-out: Apparent Km, 3 minutes post-substrate addition

T2 sequence (P08659 whole entry): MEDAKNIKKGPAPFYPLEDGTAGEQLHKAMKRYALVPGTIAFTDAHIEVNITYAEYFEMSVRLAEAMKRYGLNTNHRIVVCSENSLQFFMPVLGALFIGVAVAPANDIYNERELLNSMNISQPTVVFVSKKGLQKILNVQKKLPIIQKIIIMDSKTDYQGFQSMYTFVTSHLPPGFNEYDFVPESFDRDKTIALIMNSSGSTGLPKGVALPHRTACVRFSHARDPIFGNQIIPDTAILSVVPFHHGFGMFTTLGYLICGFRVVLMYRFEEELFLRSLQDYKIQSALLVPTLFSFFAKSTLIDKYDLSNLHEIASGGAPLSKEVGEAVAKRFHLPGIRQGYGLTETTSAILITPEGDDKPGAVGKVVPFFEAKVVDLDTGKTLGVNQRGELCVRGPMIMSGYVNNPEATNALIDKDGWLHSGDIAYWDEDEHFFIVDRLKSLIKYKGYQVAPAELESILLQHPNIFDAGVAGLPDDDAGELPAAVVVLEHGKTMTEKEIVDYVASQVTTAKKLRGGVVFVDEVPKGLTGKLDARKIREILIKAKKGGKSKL
T9 sequence (P08659 whole entry S347A): as the sequence (P08659 whole entry) above, with S347A counted along it
T1 sequence (P08659 whole entry R218K): as the sequence (P08659 whole entry) above, with R218K counted along it
T8 sequence (P08659 whole entry R218K): as the sequence (P08659 whole entry) above, with R218K counted along it
T10 sequence (P08659 whole entry T251S): as the sequence (P08659 whole entry) above, with T251S counted along it
T11 sequence (P08659 whole entry L286M): as the sequence (P08659 whole entry) above, with L286M counted along it
T20 sequence (P08659 whole entry S347A): as the sequence (P08659 whole entry) above, with S347A counted along it
T19 sequence (P08659 whole entry S347T): as the sequence (P08659 whole entry) above, with S347T counted along it
T6 sequence (P08659 whole entry L286M/S347A): as the sequence (P08659 whole entry) above, with L286M, S347A counted along it
T3 sequence (P08659 whole entry R218K/L342A): as the sequence (P08659 whole entry) above, with R218K, L342A counted along it
F247L mutant luciferase, sequence (P08659 whole entry F247L): as the sequence (P08659 whole entry) above, with F247L counted along it
T5 sequence (P08659 whole entry L342A): as the sequence (P08659 whole entry) above, with L342A counted along it
T4 sequence (P08659 whole entry F247V): as the sequence (P08659 whole entry) above, with F247V counted along it
T7 sequence (P08659 whole entry L286M): as the sequence (P08659 whole entry) above, with L286M counted along it
T22 sequence (P08659 whole entry T251S/L286M): as the sequence (P08659 whole entry) above, with T251S, L286M counted along it
T13 sequence (P08659 whole entry F247R): as the sequence (P08659 whole entry) above, with F247R counted along it
T21 sequence (P08659 whole entry F247L/L286M): as the sequence (P08659 whole entry) above, with F247L, L286M counted along it
T12 sequence (P08659 whole entry L286Y): as the sequence (P08659 whole entry) above, with L286Y counted along it
T17 sequence (P08659 whole entry T251N): as the sequence (P08659 whole entry) above, with T251N counted along it
T14 sequence (P08659 whole entry F247A): as the sequence (P08659 whole entry) above, with F247A counted along it
T18 sequence (P08659 whole entry T251S): as the sequence (P08659 whole entry) above, with T251S counted along it
T15 sequence (P08659 whole entry F247S): as the sequence (P08659 whole entry) above, with F247S counted along it
T16 sequence (P08659 whole entry T251Q): as the sequence (P08659 whole entry) above, with T251Q counted along it

SMILES | Maximum Emission Wavelength of Selected Substrate [3] [nm] | Wavelength at Max. Emission [4] [nm] | Maximum Emission Wavelength of Selected Substrate [4] [nm] | Wavelength at Max. Emission [5] [nm] | Maximum Emission Wavelength of Selected Substrate [6] [nm] | Maximum Emission Wavelength of Selected Substrate [7] [nm] | Wavelength at Max. Emission [8] [nm] | Maximum Emission Wavelength of Selected Substrate [9] [nm] | Apparent Vmax [10] | Apparent Vmax [11] | Apparent Vmax [12] | Apparent Vmax [13] | Apparent Vmax [14] | Wavelength at Max. Emission [22] [nm] | Wavelength at Max. Emission [23] [nm] | also measured
COc1ccc(-c2nc3ccccc3s2)cc1 [2-(4-methoxyphenyl)-benzothiazole, 2-(4-methoxyphenyl)benzothiazole] | – | – | – | – | – | – | – | – | – | – | – | – | – | – | – | effect of luciferase inhibitor on light output ([1]; R218K luciferase treated with D-luciferin): strongly inhibited; effect of luciferase inhibitor on light output ([1]; R218K luciferase with CycLuc2 as substrate): largely unaffected; effect of luciferase inhibitor on light output [2]: strongly inhibited
O=C(O)C1CSC(c2nc3cc4c(cc3s2)NCCO4)=N1 (stereo not drawn) [CycLuc3, 2-(7,8-Dihydro-6H-5-oxa-1-thia-3,8-diaza-cyclopenta[b]naphthalen-2-yl)-4,5-dihydro-thiazole-4-carboxylic acid] | 606 | 594 | 599 | 599 | 599 | 590 | 592 | 605 | – | – | – | – | – | – | – | –
O=C(O)[C@H]1CSC(c2nc3ccc(O)cc3s2)=N1 [D-Luciferin, D-luciferin] | – | 554 | – | 600 | – | – | 564 | – | 1079 ± 13 ×10^−5 cps | 1541 ± 21 ×10^−5 cps | 142.8 ± 3 ×10^−5 cps | 1054 ± 19 ×10^−5 cps | 1060 ± 26 ×10^−5 cps | 561 | 573 | Km [11, 27]: 106 ± 2.6 µM; Km ([12]; read-out: Apparent Km, purified protein, 3 minutes post-substrate addition): 76.6 ± 3.1 µM; Km [13, 27]: 114 ± 3.4 µM; Km [14, 27]: 19.1 ± 1.3 µM; Wavelength at Max. Emission [15]: 606 nm; Wavelength at Max. Emission [16]: 605 nm; Wavelength at Max. Emission [17]: 591 nm; Wavelength at Max. Emission [18]: 588 nm; Wavelength at Max. Emission [19]: 626 nm; Wavelength at Max. Emission [20]: 555 nm; Wavelength at Max. Emission [21]: 553 nm
Nc1ccc2nc(C3=N[C@@H](C(=O)O)CS3)sc2c1 [6′-NH2LH2, 6′-aminoluciferin] | 594 | 595 | 594 | – | 591 | 589 | – | 599 | 35 ± 0.25 ×10^−5 cps | 157 ± 3.7 ×10^−5 cps | 91 ± 0.4 ×10^−5 cps | 51 ± 0.3 ×10^−5 cps | 62 ± 0.7 ×10^−5 cps | 583 | 591 | improvement of maximal sustained light emission [24]: 4.9 fold and > 5 fold; Wavelength at Max. Emission [25]: 592 nm; Wavelength at Max. Emission [26]: 602 nm
